Measured values from patent US9657351B2, “MRNA-based gene expression for personalizing patient cancer therapy with an MDM2 antagonist” (Hoffmann-La Roche Inc., priority 2013, dated 2017).

System: CELLO/CACTEL human cancer cell lines
Test: COMPOUND A In Vitro Assay, whole CELLO/CACTEL panel (IC50 vs mRNA signature score, TP53 status, tumor type)
Assay type: cell-based
Conditions: for % Res: resistant IC50>=10; for % Sen: sensitive IC50<=1
Description: To generate an MDM2 antagonist therapy predictive signature, the response of MDM2 antagonist therapy in vitro with gene expression profiling (FIG. 1) is combined. A bank of 287 human cancer cell lines, collectively termed the Cell Lines for Oncology/Chugai ACcumulative Tumour EncycLopedia (CELLO/CACTEL), representing a broad array of diverse human cancer tumor types are subject to evaluation using several high-throughput genomic technology platforms. The mutational status of nucleic acids from each cell line is determined by exome sequencing. Messenger RNA (mRNA) expression levels at baseline, prior to MDM2 antagonist therapy, are obtained via RNA sequencing. MDM2 antagonist therapy COMPOUND A, sometimes referred to herein as RG7112, responses are obtained by assays known to those skilled in the art such as RNA sequencing and microarray measurement using Gene Chip Human Genome U133 Plus 2.0 Array. The MDM2 therapy responses are obtained by high throughout screening assays. Depending on their responses to COMPOUND A these cell lines are classified as either sensitive, defined as IC50<=1, or resistant, defined as IC50>=10.
281 cells are treated with MDM2 antagonists and the IC50 (therapy response) is generated. The cell lines span a broad range of tumor cell types of derivation.
To examine the specific prediction power of the mRNA signature score across the studied tumor types, and to make sure the prediction from the signature score is not confounded by tumor lineage, the signature score within each available tumor type in CELLO (Table 7, 7a) is examined.
The genes are ranked via their fold changes of responder cell lines to non-responder cell lines. Positive genes are defined as those with fold changes higher than 1; whereas negative genes are defined as those with fold changes less than 1. A multivariate logistic regression classifier is then built through a upward model selection procedure to maximize area under the receiver operating characteristic (ROC) curve with 10-fold cross-validation. The mode selection is implemented procedure through R package bestglm.

[1] = Adenocarcinoma cell lines, N 21
[2] = Adenocarcinoma, colorectal cell lines, N 7
[3] = Bone marrow cell lines, Number 5
[4] = Breast, mammary gland cell lines, Number 20
[5] = Carcinoma, gastric cell lines, N 5
[6] = Carcinoma, primary ductal cell lines, N 5
[7] = Carcinoma, squamous cell cell lines, N 12
[8] = Carcinoma, urinary bladder, transitional cell carcinoma (TCC) cell lines, N 7
[9] = Intestine, large, colon cell lines, Number 8
[10] = Leukaemia, acute myeloid cell lines, N 5
[11] = Lymphocyte cell lines, Number 6
[12] = Myeloma, multiple cell lines, N 5
[13] = Neuroblastoma (Glioma, neuroblastoma) cell lines, N 6
[14] = Urinary, bladder cell lines, Number 8

In the case of `CCOc1cc(C(C)(C)C)ccc1C1=N[C@@](C)(c2ccc(Cl)cc2)[C@@](C)(c2ccc(Cl)cc2)N1C(=O)N1CCN(CCCS(C)(=O)=O)CC1` [COMPOUND A], the “N (resistant)” value [1] is reported as 17, the “N (sensitive)” value [1] is reported as 4 and the “N (resistant)” value [2] is reported as 5. For the same compound, the “N (sensitive)” value [2] was 2, the “% Res” value [3] was 60.0% and the “% Sen” value [3] was 40.0%. For the same compound, the “% Res” value (Brain cell lines, Number 10) was 50.0%, the “% Sen” value (Brain cell lines, Number 10) was 50.0% and the “% Res” value [4] was 85.0%. For the same compound, the “% Sen” value [4] was 15.0%, the “N (resistant)” value (Carcinoma cell lines, N 8) was 6 and the “N (sensitive)” value (Carcinoma cell lines, N 8) was 2. The “N (resistant)” value [5] was 3, the “N (sensitive)” value [5] was 2 and the “N (resistant)” value [6] was 4. The “N (sensitive)” value [6] was 1, the “N (resistant)” value [7] was 9 and the “N (sensitive)” value [7] was 3. For the same compound, the “N (resistant)” value [8] was 6, the “N (sensitive)” value [8] was 1 and the “% Res” value [9] was 62.5%. The “% Sen” value [9] was 37.5%, the “N (resistant)” value [10] was 3 and the “N (sensitive)” value [10] was 2. For the same compound, the “% Res” value (Lung cell lines, Number 41) was 85.4%, the “% Sen” value (Lung cell lines, Number 41) was 14.6% and the “% Res” value [11] was 50.0%. The “% Sen” value [11] was 50.0%, the “N (resistant)” value [12] was 2 and the “N (sensitive)” value [12] was 3. For the same compound, the “N (resistant)” value [13] was 3, the “N (sensitive)” value [13] was 3 and the “% Res” value (Ovary cell lines, Number 6) was 66.7%. For the same compound, the “% Sen” value (Ovary cell lines, Number 6) was 33.3%, the “% Res” value (Pancreas cell lines, Number 9) was 100.0% and the “% Sen” value (Pancreas cell lines, Number 9) was 0.0%. The “% Res” value (Skin cell lines, Number 6) was 66.7%, the “% Sen” value (Skin cell lines, Number 6) was 33.3% and the “% Res” value (Stomach cell lines, Number 8) was 50.0%. The “% Sen” value (Stomach cell lines, Number 8) was 50.0%, the “% Res” value [14] was 75.0% and the “% Sen” value [14] was 25.0%.
